Measurements reported in US9321721B2, “Kinase inhibitors” (Allergan, Inc., priority 2013, dated 2016).
Entries after “also recorded” stand apart in the source; their conditions may differ.

Biological target: VEGFR2 (purified cytoplasmic domain KDR protein) (Homo sapiens (Human), UniProt P35968)
Test: VEGFR2 Kinase Assay (biochemical KDR kinase assay, ELISA readout)
Settings: for IC50: 2.7 μM ATP, poly-Glu-Tyr (4:1) substrate, 15 minute incubation at 30° C.; for VEGFR2 potency as shown in this assay (in words): qualitative ranking based on the Table 2 data
Method: VEGFR2 kinase potency of select analogs was determined by the following assay:
Biochemical KDR kinase assays were performed in 96 well microtiter plates that were coated overnight with 75 μg/well of poly-Glu-Tyr (4:1) in 10 mM Phosphate Buffered Saline (PBS), pH 7.4. The coated plates were washed with 2 mls per well PBS+0.05% Tween-20 (PBS-T), blocked by incubation with PBS containing 1% BSA, then washed with 2 mls per well PBS-T prior to starting the reaction. Reactions were carried out in 100 μL reaction volumes containing 2.7 μM ATP in kinase buffer (50 mM Hepes buffer pH 7.4, 20 mM MgCl2, 0.1 mM MnCl2 and 0.2 mM Na3VO4). Test compounds were reconstituted in 100% DMSO and added to the reaction to give a final DMSO concentration of 5%. Reactions were initiated by the addition 20 ul per well of kinase buffer containing 200-300 ng purified cytoplasmic domain KDR protein (BPS Bioscience, San Diego, Calif.). Following a 15 minute incubation at 30° C., the reactions were washed 2 mls per well PBS-T. 100 μl of a monoclonal anti-phosphotyrosine antibody-peroxidase conjugate diluted 1:10,000 in PBS-T was added to the wells for 30 minutes. Following a 2 mls per well wash with PBS-Tween-20, 100 μl of O-Phenylenediamine Dihydrochloride in phosphate-citrate buffer, containing urea hydrogen peroxide, was added to the wells for 7-10 minutes as a colorimetric substrate for the peroxidase. The reaction was terminated by the addition of 100 μl of 2.5N H2SO4 to each well and read using a microplate ELISA reader set at 492 nm. IC50 values for compound inhibition were calculated directly from graphs of optical density (arbitrary units) versus compound concentration following subtraction of blank values.

Sequence of VEGFR2 (purified cytoplasmic domain KDR protein) (P35968 786-1356): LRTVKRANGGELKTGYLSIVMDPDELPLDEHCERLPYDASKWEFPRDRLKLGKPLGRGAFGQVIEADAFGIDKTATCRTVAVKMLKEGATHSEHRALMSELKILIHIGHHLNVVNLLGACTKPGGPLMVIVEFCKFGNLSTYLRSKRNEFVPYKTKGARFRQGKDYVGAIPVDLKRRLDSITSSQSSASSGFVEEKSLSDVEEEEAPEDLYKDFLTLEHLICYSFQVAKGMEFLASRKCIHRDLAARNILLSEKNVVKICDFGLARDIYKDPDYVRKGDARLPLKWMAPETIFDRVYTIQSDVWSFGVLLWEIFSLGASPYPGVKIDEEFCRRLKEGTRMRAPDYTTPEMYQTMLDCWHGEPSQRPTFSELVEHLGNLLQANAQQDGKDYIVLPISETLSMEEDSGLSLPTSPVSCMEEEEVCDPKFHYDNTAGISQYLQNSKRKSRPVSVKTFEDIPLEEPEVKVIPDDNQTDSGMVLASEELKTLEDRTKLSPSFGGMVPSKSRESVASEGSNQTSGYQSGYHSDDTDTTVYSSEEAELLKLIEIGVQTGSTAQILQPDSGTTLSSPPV

IC50 | VEGFR2 potency as shown in this assay (in words) | Compound
2790 nM | excellent VEGFR2 potency | NC(=O)/C=C\c1ccc(NC(=O)Nc2cc(C(F)(F)F)ccc2F)cc1 [Example 7, (2Z)-3-{4-[({[2-fluoro-5-(trifluoromethyl)phenyl]amino}carbonyl)amino]phenyl}acrylamide]
> 10000 nM | – | NC(=O)/C=C/c1cccc(NC(=O)Nc2cc(C(F)(F)F)ccc2F)c1 [Example 5, (2E)-3-{3-[({[2-fluoro-5-(trifluoromethyl)phenyl]amino}carbonyl)amino]phenyl}acrylamide]

The next lines start with the molecule.

Compound | IC50 | VEGFR2 potency as shown in this assay (in words)
COc1cccc(/C(=C/C(N)=O)c2ccc(NC(=O)Nc3cc(C(F)(F)F)ccc3F)cc2)c1 [Example 2, (2E)-3-{4-[({[2-fluoro-5-(trifluoromethyl)phenyl]amino}carbonyl)amino]phenyl}-3-(3-methoxyphenyl)acrylamide] | 945 nM | excellent VEGFR2 potency
NC(=O)/C=C/c1ccc(NC(=O)Nc2cc(C(F)(F)F)ccc2F)cc1 [Example 6, (2E)-3-{4-[({[2-fluoro-5-(trifluoromethyl)phenyl]amino}carbonyl)amino]phenyl}acrylamide] | > 10000 nM | –
COc1ccc(/C(=C/C(N)=O)c2ccc(NC(=O)Nc3cc(C(F)(F)F)ccc3F)cc2)cc1 [Example 3, (2E)-3-{4-[({[2-fluoro-5-(trifluoromethyl)phenyl]amino}carbonyl)amino]phenyl}-3-(4-methoxyphenyl)acrylamide] | 457 nM | excellent VEGFR2 potency; also recorded: best VEGFR2 potency
NC(=O)/C=C(/c1ccccc1)c1ccc(NC(=O)Nc2cc(C(F)(F)F)ccc2F)cc1 [Example 1, (2Z)-3-{4-[({[2-fluoro-5-(trifluoromethyl)phenyl]amino}carbonyl)amino]phenyl}-3-phenylacrylamide] | 626 nM | excellent VEGFR2 potency
NC(=O)/C=C(/c1ccccc1)c1cccc(NC(=O)Nc2cc(C(F)(F)F)ccc2F)c1 [Example 4, (2Z)-3-{3-[({[2-fluoro-5-(trifluoromethyl)phenyl]amino}carbonyl)amino]phenyl}-3-phenylacrylamide] | > 10000 nM | –
